Laboratory results reported in ChEMBL document CHEMBL1148899, “Activity of macrocyclic jatrophane diterpenes from Euphorbia kansui in a TrkA fibroblast survival assay” (2004).
In brackets after ≈: the same amount, converted by molar mass.

Tests used:
[1] = tested on: NIH3T3; assay: Survival effect on NGF-dependent mouse NIH/3T3 cells expressing TrkA assessed as cell viability after 2 days by MTT assay; assay type: functional; details: NIH3T3, 48 h, read-out: ED50 (the source's name)
[2] = tested on: NIH3T3; assay: Survival effect on NGF-dependent mouse NIH/3T3 cells expressing TrkB assessed as cell viability after 2 days by MTT assay; assay type: functional; details: NIH3T3, 48 h, read-out: ED50 (the source's name)

| SMILES | EC50 [1] | EC50 [2] |
| --- | --- | --- |
| C=C1[C@H](OC(C)=O)[C@@H](OC(=O)c2ccccc2)[C@@H](OC(=O)c2cccnc2)C(C)(C)[C@H]2O[C@](O)([C@H](C)C2=O)[C@@]2(OC(C)=O)C[C@H](C)[C@H](OC(C)=O)[C@@H]2[C@H]1OC(C)=O [KANSUININ D] | 0.55 µg/mL (≈ 0.693 µM) | 0.22 µg/mL (≈ 0.277 µM) |
| C=C1[C@H](OC(C)=O)[C@@H](OC(=O)c2ccccc2)[C@@H](OC(=O)c2ccccc2)C(C)(C)[C@H]2O[C@@H]2[C@@H](C)C(=O)[C@@]2(OC(C)=O)C[C@H](C)[C@H](OC(C)=O)[C@@H]2[C@H]1OC(C)=O [KANSUININ F] | > 50 µg/mL | > 50 µg/mL |
| C=C1[C@H](OC(C)=O)[C@@H](OC(=O)c2ccccc2)[C@@H](OC(C)=O)C(C)(C)[C@H]2O[C@](O)([C@H](C)C2=O)[C@@]2(OC(C)=O)C[C@H](C)[C@H](OC(C)=O)[C@@H]2[C@H]1OC(C)=O [KANSUININ A] | 7.92 µg/mL (≈ 10.8 µM) | 3.28 µg/mL (≈ 4.49 µM) |
| C=C1[C@H](OC(C)=O)[C@@H](OC(=O)c2ccccc2)[C@@H](OC(=O)c2cccnc2)C(C)(C)[C@H]2O[C@@H]2[C@@H](C)C(=O)[C@@]2(OC(C)=O)C[C@H](C)[C@H](OC(C)=O)[C@@H]2[C@H]1OC(C)=O [KANSUININ E] | 0.23 µg/mL (≈ 0.296 µM) | > 50 µg/mL |
